Laboratory results taken from PubChem BioAssay AID1963828 (Molecular Pharmacology Branch, DTP, NCI, 2024).

System: 991263-137-R1-J2-PDC complex spheroid viability
Experiment: Anticancer human tumor 991263-137-R1-J2-PDC patient-derived colon adenocarcinoma cell line growth inhibition [POLQ]
Settings: for IC50: curve of first compound; for viability, T/C: stronger effect = lower value
Summary of the method: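 PDC + HUVEC + MSC complex spheroids; POLQ inhibitors ± partner drugs; top conc. at/near clinical Cmax, else 10 microM (SN-38 1 microM), half-log dilutions; 37 degrees C, 5% CO2.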

[1] = second compound 0.0316 µM, first compound 0.0316 µM
[2] = second compound 0.0316 µM, first compound 0.1 µM
[3] = second compound 0.0316 µM, first compound 0.316 µM
[4] = second compound 0.0316 µM, first compound 1 µM
[5] = second compound 0.0316 µM, first compound 3.16 µM
[6] = second compound 0.0316 µM, first compound 10 µM
[7] = second compound 0.1 µM, first compound 0.0316 µM
[8] = second compound 0.1 µM, first compound 0.1 µM
[9] = second compound 0.1 µM, first compound 0.316 µM
[10] = second compound 0.1 µM, first compound 1 µM
[11] = second compound 0.1 µM, first compound 3.16 µM
[12] = second compound 0.1 µM, first compound 10 µM
[13] = second compound 0.316 µM, first compound 0.0316 µM
[14] = second compound 0.316 µM, first compound 0.1 µM
[15] = second compound 0.316 µM, first compound 0.316 µM
[16] = second compound 0.316 µM, first compound 1 µM
[17] = second compound 0.316 µM, first compound 3.16 µM
[18] = second compound 0.316 µM, first compound 10 µM
[19] = second compound 1 µM, first compound 0.0316 µM
[20] = second compound 1 µM, first compound 0.1 µM
[21] = second compound 1 µM, first compound 0.316 µM
[22] = second compound 1 µM, first compound 1 µM
[23] = second compound 1 µM, first compound 3.16 µM
[24] = second compound 1 µM, first compound 10 µM
[25] = second compound 3.16 µM, first compound 0.0316 µM
[26] = second compound 3.16 µM, first compound 0.1 µM
[27] = second compound 3.16 µM, first compound 0.316 µM
[28] = second compound 3.16 µM, first compound 1 µM
[29] = second compound 3.16 µM, first compound 3.16 µM
[30] = second compound 3.16 µM, first compound 10 µM
[31] = second compound 10 µM, first compound 0.0316 µM
[32] = second compound 10 µM, first compound 0.1 µM
[33] = second compound 10 µM, first compound 0.316 µM
[34] = second compound 10 µM, first compound 1 µM
[35] = second compound 10 µM, first compound 3.16 µM
[36] = second compound 10 µM, first compound 10 µM
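Note: spheroids exposed to compounds for 7 days before readout.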
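Throughout, for viability, T/C: 100% = DMSO vehicle control viability.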

CCc1cc2c(N3CCc4c(cc(Cn5ccnc5)cc4-c4cn(C)nc4C(F)(F)F)C3=O)ccnc2c(OC)n1 + Cc1cccc(N(C)C(=O)C2C(O)CCN2c2nc(C)cc(C(F)(F)F)c2C#N)c1
IC50 (second compound 0.0316 µM): > 10 µM | IC50 (second compound 0.1 µM): > 10 µM | IC50 (second compound 0.316 µM): > 10 µM | IC50 (second compound 1 µM): > 10 µM | IC50 (second compound 3.16 µM): > 10 µM | IC50 (second compound 10 µM): > 10 µM | viability, T/C [1]: 95.3% | viability, T/C [2]: 108% | viability, T/C [3]: 107% | viability, T/C [4]: 87.2% | viability, T/C [5]: 82.8% | viability, T/C [6]: 91.7% | viability, T/C [7]: 103% | viability, T/C [8]: 100% | viability, T/C [9]: 97.7% | viability, T/C [10]: 95.9% | viability, T/C [11]: 96.7% | viability, T/C [12]: 88.3% | viability, T/C [13]: 104% | viability, T/C [14]: 96.8% | viability, T/C [15]: 93.4% | viability, T/C [16]: 95.7% | viability, T/C [17]: 100% | viability, T/C [18]: 94.4% | viability, T/C [19]: 105% | viability, T/C [20]: 98.4% | viability, T/C [21]: 110% | viability, T/C [22]: 96% | viability, T/C [23]: 103% | viability, T/C [24]: 92% | viability, T/C [25]: 106% | viability, T/C [26]: 97.5% | viability, T/C [27]: 90.4% | viability, T/C [28]: 96.2% | viability, T/C [29]: 90.3% | viability, T/C [30]: 89% | viability, T/C [31]: 96.6% | viability, T/C [32]: 111% | viability, T/C [33]: 97% | viability, T/C [34]: 89.9% | viability, T/C [35]: 91.4% | viability, T/C [36]: 83%

CC(=O)O[C@H]1C(=O)[C@@]2(C)[C@H]([C@H](OC(=O)c3ccccc3)[C@]3(O)C[C@H](OC(=O)[C@H](O)[C@@H](NC(=O)c4ccccc4)c4ccccc4)C(C)=C1C3(C)C)[C@]1(OC(C)=O)CO[C@@H]1C[C@@H]2O + Nc1ccc(C#CCN(C(=O)Cc2ncc(C(F)(F)F)cc2C(F)(F)F)c2ccc(F)cc2)nn1
IC50 (second compound 0.0316 µM): > 3 µM | IC50 (second compound 0.1 µM): > 3 µM | IC50 (second compound 0.316 µM): 2.53 µM | IC50 (second compound 1 µM): > 3 µM | IC50 (second compound 3.16 µM): > 3 µM | IC50 (second compound 10 µM): > 3 µM | viability, T/C (second compound 0.0316 µM, first compound 0.00949 µM): 98.6% | viability, T/C (second compound 0.0316 µM, first compound 0.03 µM): 89.7% | viability, T/C (second compound 0.0316 µM, first compound 0.0949 µM): 84.9% | viability, T/C (second compound 0.0316 µM, first compound 0.3 µM): 77.8% | viability, T/C (second compound 0.0316 µM, first compound 0.949 µM): 55.3% | viability, T/C (second compound 0.0316 µM, first compound 3 µM): 56.6% | viability, T/C (second compound 0.1 µM, first compound 0.00949 µM): 93.9% | viability, T/C (second compound 0.1 µM, first compound 0.03 µM): 96.5% | viability, T/C (second compound 0.1 µM, first compound 0.0949 µM): 87.9% | viability, T/C (second compound 0.1 µM, first compound 0.3 µM): 85.8% | viability, T/C (second compound 0.1 µM, first compound 0.949 µM): 55.1% | viability, T/C (second compound 0.1 µM, first compound 3 µM): 50.9% | viability, T/C (second compound 0.316 µM, first compound 0.00949 µM): 93.9% | viability, T/C (second compound 0.316 µM, first compound 0.03 µM): 95.6% | viability, T/C (second compound 0.316 µM, first compound 0.0949 µM): 85.3% | viability, T/C (second compound 0.316 µM, first compound 0.3 µM): 80% | viability, T/C (second compound 0.316 µM, first compound 0.949 µM): 58% | viability, T/C (second compound 0.316 µM, first compound 3 µM): 48.9% | viability, T/C (second compound 1 µM, first compound 0.00949 µM): 92.5% | viability, T/C (second compound 1 µM, first compound 0.03 µM): 96.9% | viability, T/C (second compound 1 µM, first compound 0.0949 µM): 98% | viability, T/C (second compound 1 µM, first compound 0.3 µM): 66.4% | viability, T/C (second compound 1 µM, first compound 0.949 µM): 57.7% | viability, T/C (second compound 1 µM, first compound 3 µM): 51.7% | viability, T/C (second compound 3.16 µM, first compound 0.00949 µM): 90.2% | viability, T/C (second compound 3.16 µM, first compound 0.03 µM): 87.1% | viability, T/C (second compound 3.16 µM, first compound 0.0949 µM): 68.7% | viability, T/C (second compound 3.16 µM, first compound 0.3 µM): 60.6% | viability, T/C (second compound 3.16 µM, first compound 0.949 µM): 51.4% | viability, T/C (second compound 3.16 µM, first compound 3 µM): 50.6% | viability, T/C (second compound 10 µM, first compound 0.00949 µM): 84.6% | viability, T/C (second compound 10 µM, first compound 0.03 µM): 72% | viability, T/C (second compound 10 µM, first compound 0.0949 µM): 53.8% | viability, T/C (second compound 10 µM, first compound 0.3 µM): 58.1% | viability, T/C (second compound 10 µM, first compound 0.949 µM): 49.5% | viability, T/C (second compound 10 µM, first compound 3 µM): 50.2%

CCCS(=O)(=O)Nc1ccc(F)c(C(=O)c2c[nH]c3ncc(-c4ccc(Cl)cc4)cc23)c1F + Cc1cccc(N(C)C(=O)C2C(O)CCN2c2nc(C)cc(C(F)(F)F)c2C#N)c1
IC50 (second compound 0.0316 µM): > 10 µM | IC50 (second compound 0.1 µM): > 10 µM | IC50 (second compound 0.316 µM): > 10 µM | IC50 (second compound 1 µM): > 10 µM | IC50 (second compound 3.16 µM): > 10 µM | IC50 (second compound 10 µM): > 10 µM | viability, T/C [1]: 112% | viability, T/C [2]: 98.6% | viability, T/C [3]: 98% | viability, T/C [4]: 103% | viability, T/C [5]: 106% | viability, T/C [6]: 99.9% | viability, T/C [7]: 103% | viability, T/C [8]: 109% | viability, T/C [9]: 105% | viability, T/C [10]: 114% | viability, T/C [11]: 106% | viability, T/C [12]: 104% | viability, T/C [13]: 101% | viability, T/C [14]: 102% | viability, T/C [15]: 85.2% | viability, T/C [16]: 97.5% | viability, T/C [17]: 101% | viability, T/C [18]: 106% | viability, T/C [19]: 96.8% | viability, T/C [20]: 97.5% | viability, T/C [21]: 95.5% | viability, T/C [22]: 95.7% | viability, T/C [23]: 100% | viability, T/C [24]: 92.3% | viability, T/C [25]: 99.8% | viability, T/C [26]: 96.7% | viability, T/C [27]: 93.5% | viability, T/C [28]: 99.1% | viability, T/C [29]: 109% | viability, T/C [30]: 84.5% | viability, T/C [31]: 101% | viability, T/C [32]: 98.5% | viability, T/C [33]: 97.3% | viability, T/C [34]: 92.5% | viability, T/C [35]: 101% | viability, T/C [36]: 89.2%
